We go through ten compounds from ChEMBL document CHEMBL1201862, “PubChem BioAssay data set” (2004).

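Briefly, cells in 96-well plates were exposed to five compound concentrations for 48 h, and endpoints were estimated by linear interpolation. GI50: concentration for 50% inhibition of growth.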 Active and inactive are the calls of the source. No stated cut-off is given here; in the data, active = GI50 up to about 1.1 µM and inactive = higher.

Some test systems named below: 786-0; A549; CAKI-1; HCC 2998; HCT-116; HCT-15; HOP-62; HT-29; Hs-578T; IGROV-1; M14; Malme-3M; NCI-H460; OVCAR-4; OVCAR-5; PC-3; RPMI-8226; SF-539; SNB-19; UACC-257.
Holding throughout (experiment): inhibition of tumour cell growth, NCI panel, 48 h

Consider `COc1ccc(OC)c2c(=S)c3ccccc3[nH]c12`, for which the GI50 in the experiment with 786-0 was > 91.8 µM (inactive); in the experiment on A549, > 100 µM (inactive); with CAKI-1 it was > 100 µM (inactive); in the experiment with HCC 2998 it was > 100 µM (inactive); with HCT-116, 64.6 µM (inactive); with HCT-15, 47.5 µM. Further, the GI50 in the experiment on HOP-62 is > 100 µM (inactive); in the experiment on HT-29, 64.6 µM (inactive); with Hs-578T, > 100 µM (inactive); in the experiment on IGROV-1, > 96.6 µM (inactive); with M14, > 100 µM (inactive); with Malme-3M, 84.9 µM (inactive). The GI50 with NCI-H460 was > 63 µM (inactive); in the experiment with OVCAR-4, > 100 µM (inactive); with OVCAR-5 it was > 94.8 µM (inactive); in the experiment on PC-3, 78.5 µM (inactive); with RPMI-8226, 37.9 µM (inactive); with SF-539 it was > 79.1 µM (inactive). Further, the GI50 was > 100 µM (inactive) in the experiment on SNB-19 and > 73.8 µM (inactive) with UACC-257.
With `C=C1CC/C=C(\C)CCC[C@H](C)[C@@H](O)[C@@H]2OC(=O)C(=C)[C@@H]2C[C@H]1O`, the GI50 is 3.8 µM (inactive) in the experiment with 786-0; 17.1 µM (inactive) with A549; 3.94 µM (inactive) in the experiment with CAKI-1; 18.4 µM (inactive) with HCC 2998; 6.47 µM (inactive) in the experiment with HCT-116; 3.42 µM with HCT-15. Moreover, the GI50 in the experiment on HOP-62 was 16 µM (inactive); with HT-29, 4.22 µM (inactive); in the experiment with Hs-578T it was 7.91 µM (inactive); in the experiment with IGROV-1, 3.88 µM (inactive); in the experiment with M14, 4.75 µM (inactive); in the experiment with Malme-3M it was 5.96 µM (inactive). The GI50 in the experiment with NCI-H460 is 8.99 µM (inactive); with OVCAR-4, 19.1 µM (inactive); with OVCAR-5 it was 17.3 µM (inactive); in the experiment with PC-3, 10 µM (inactive); in the experiment on RPMI-8226, 3.52 µM (inactive); in the experiment on SF-539 it was 2.27 µM (inactive). The GI50 with SNB-19 was 14.8 µM (inactive); with UACC-257 it was 9.77 µM (inactive).
As for `CC(C)[Si](OCC/C=C/C1CCC(=O)C1C(O)C1CCCCC1)(C(C)C)C(C)C` (stereo not given), the GI50 was 15.9 µM (inactive) in the experiment with 786-0; 13.8 µM (inactive) with A549; 14.7 µM (inactive) in the experiment with CAKI-1; 8.99 µM (inactive) in the experiment on HCC 2998; 14.7 µM (inactive) in the experiment on HCT-116; 16.3 µM in the experiment on HCT-15. The GI50 in the experiment with HOP-62 was 16.9 µM (inactive); in the experiment on HT-29, 13.2 µM (inactive); in the experiment on Hs-578T it was 18.1 µM (inactive); in the experiment with IGROV-1 it was 15.1 µM (inactive); in the experiment on M14 it was 17.2 µM (inactive); in the experiment on Malme-3M, 14.8 µM (inactive). Moreover, the GI50 in the experiment with NCI-H460 is 17 µM (inactive); in the experiment with OVCAR-4, 20.1 µM (inactive); in the experiment on OVCAR-5, 18.2 µM (inactive); in the experiment on PC-3, 13.3 µM (inactive); in the experiment on RPMI-8226, 13.7 µM (inactive); in the experiment on SF-539 it was 19.8 µM (inactive). In addition, the GI50 with SNB-19 is 17.7 µM (inactive); in the experiment on UACC-257, 15.4 µM (inactive).
`O=C(/C=C/c1ccc([N+](=O)[O-])cc1)N1CCN(CCOC(c2ccc(F)cc2)c2ccc(F)cc2)CC1`: the GI50 in the experiment on 786-0 was 67.6 µM (inactive); in the experiment on A549, 12 µM (inactive); in the experiment on CAKI-1, 18.2 µM (inactive); in the experiment with HCC 2998 it was 29.2 µM (inactive); in the experiment with HCT-116 it was 9.64 µM (inactive); in the experiment on HCT-15, 19.1 µM. Besides, the GI50 in the experiment on HOP-62 was > 100 µM (inactive); with HT-29, 13 µM (inactive); with Hs-578T, > 100 µM (inactive); with IGROV-1, 56.9 µM (inactive); in the experiment with M14, 6.35 µM (inactive); in the experiment on Malme-3M, > 100 µM (inactive). Further, the GI50 in the experiment on NCI-H460 was 11.3 µM (inactive); in the experiment on OVCAR-4 it was 8.75 µM (inactive); in the experiment on OVCAR-5, > 100 µM (inactive); in the experiment with PC-3 it was > 100 µM (inactive); with RPMI-8226, 3.78 µM (inactive); in the experiment on SF-539, 45.9 µM (inactive). In addition, the GI50 in the experiment on SNB-19 and with UACC-257 was > 100 µM (inactive) in each case.
Consider `O=CC(I)=C(c1ccccc1)c1ccccc1`, for which the GI50 in the experiment on 786-0 is 14.8 µM (inactive); in the experiment with A549 it was 19.5 µM (inactive); with CAKI-1, 16.2 µM (inactive); in the experiment with HCC 2998, 19.7 µM (inactive); in the experiment on HCT-116 it was 14.2 µM (inactive); in the experiment with HCT-15, 14.1 µM. Moreover, the GI50 was 18.1 µM (inactive) in the experiment on HOP-62; 14 µM (inactive) in the experiment on HT-29; 24.5 µM (inactive) with Hs-578T; 19.2 µM (inactive) with IGROV-1; 18.5 µM (inactive) in the experiment on M14; 16.2 µM (inactive) with Malme-3M. Further, the GI50 with NCI-H460 is 17.5 µM (inactive); with OVCAR-4, 13.4 µM (inactive); in the experiment on OVCAR-5, 21.8 µM (inactive); in the experiment with PC-3 it was 15.2 µM (inactive); in the experiment on RPMI-8226, 8.51 µM (inactive); in the experiment on SF-539 it was 23.2 µM (inactive). The GI50 is 15.7 µM (inactive) with SNB-19 and 20.4 µM (inactive) in the experiment on UACC-257.
As to `CN(C)c1c(Cl)c(=O)oc2c1ccc1nc(-c3ccccc3)sc12`, the GI50 with 786-0 was > 100 µM (inactive); in the experiment with A549, > 100 µM (inactive); in the experiment with CAKI-1, > 100 µM (inactive); with HCC 2998, > 100 µM (inactive); in the experiment on HCT-116, > 100 µM (inactive); in the experiment on HCT-15, more than 100 µM. The GI50 in the experiment with HOP-62 is 98.9 µM (inactive); in the experiment on HT-29 it was > 100 µM (inactive); with Hs-578T, > 100 µM (inactive); in the experiment on IGROV-1 it was > 100 µM (inactive); in the experiment on M14, > 100 µM (inactive); in the experiment with Malme-3M, 31.5 µM (inactive). For the same compound, the GI50 in the experiment on NCI-H460, in the experiment with OVCAR-4, in the experiment on OVCAR-5, in the experiment with PC-3, in the experiment on RPMI-8226 and in the experiment on SF-539 was > 100 µM (inactive) each time. The GI50 with SNB-19 and in the experiment on UACC-257 was > 100 µM (inactive) in each case.
For the compound `Cc1c2cc[n+](C)cc2c(C)c2c1sc1ccccc12`, the GI50 with 786-0 is 0.204 µM (active); in the experiment with A549 it was 0.159 µM (active); in the experiment with CAKI-1, 3.46 µM (inactive); in the experiment with HCC 2998, 1.44 µM (inactive); in the experiment with HCT-116, 3.63 µM (inactive); in the experiment with HCT-15, 18.3 µM. The GI50 is 0.452 µM (active) with HOP-62; 3.85 µM (inactive) in the experiment on HT-29; 0.069 µM (active) with Hs-578T; 1.12 µM (inactive) with IGROV-1; 4.73 µM (inactive) in the experiment on M14; 0.542 µM (active) in the experiment on Malme-3M. Also, the GI50 was 0.35 µM (active) in the experiment on NCI-H460; 3.4 µM (inactive) in the experiment with OVCAR-4; 3.86 µM (inactive) with OVCAR-5; 1.48 µM (inactive) with PC-3; 1.22 µM (inactive) with RPMI-8226; 0.332 µM (active) in the experiment with SF-539. Besides, the GI50 was 0.205 µM (active) with SNB-19 and 1.94 µM (inactive) in the experiment on UACC-257.
As to `N=C(N)c1ccc(C(NC(=O)CNS(=O)(=O)c2ccc3ccccc3c2)P(=O)(Oc2ccccc2)Oc2ccccc2)cc1` (stereo not given), the GI50 is 36.8 µM (inactive) in the experiment with 786-0; 54.1 µM (inactive) in the experiment with A549; 67.5 µM (inactive) in the experiment on CAKI-1; > 100 µM (inactive) in the experiment with HCC 2998; 37.8 µM (inactive) in the experiment with HCT-116; 48.5 µM with HCT-15. For the same compound, the GI50 in the experiment with HOP-62 is 51.9 µM (inactive); with HT-29, 98.6 µM (inactive); in the experiment on Hs-578T, 35.2 µM (inactive); in the experiment on IGROV-1, 31.8 µM (inactive); in the experiment on M14, 45.2 µM (inactive); with Malme-3M, 68.1 µM (inactive). For the same compound, the GI50 was > 100 µM (inactive) in the experiment on NCI-H460; > 100 µM (inactive) in the experiment with OVCAR-4; 32.6 µM (inactive) in the experiment on OVCAR-5; 37.8 µM (inactive) in the experiment on PC-3; 46.3 µM (inactive) with RPMI-8226; 14.1 µM (inactive) in the experiment on SF-539. The GI50 in the experiment on SNB-19 was 47 µM (inactive); in the experiment with UACC-257 it was > 100 µM (inactive).
In the case of `CC[C@H](C)[C@H]1NC(=O)[C@@H](NC(=O)[C@@H](CC(C)C)N(C)C(=O)C2CCCN2C(=O)[C@H](C)O)[C@@H](C)OC(=O)[C@H](Cc2ccccc2)N(C)C(=O)[C@@H]2CCCN2C(=O)[C@H](CC(C)C)NC(=O)[C@@H](C)C(=O)[C@H](C(C)C)OC(=O)C[C@@H]1O` (stereo not given in full), the GI50 in the experiment on 786-0 is < 0.00625 µM (active); in the experiment with A549, < 0.00625 µM (active); in the experiment on CAKI-1 it was < 0.00625 µM (active); with HCC 2998 it was < 0.00625 µM (active); in the experiment with HCT-116, < 0.00625 µM (active); with HCT-15, 0.00757 µM. Moreover, the GI50 in the experiment on HOP-62, in the experiment on HT-29, in the experiment with Hs-578T, with IGROV-1, with M14 and in the experiment with Malme-3M was < 0.00625 µM (active) in each case. Also, the GI50 in the experiment with NCI-H460, with OVCAR-4, with OVCAR-5, in the experiment with PC-3, with RPMI-8226 and in the experiment with SF-539 was < 0.00625 µM (active) in each case. The GI50 in the experiment on SNB-19 and in the experiment with UACC-257 was < 0.00625 µM (active) throughout.
As for `CCCCNc1nc(O)c2[nH]cnc2n1`, the GI50 in the experiment on 786-0 is > 100 µM (inactive); in the experiment with A549, > 100 µM (inactive); in the experiment on CAKI-1 it was > 100 µM (inactive); with HCC 2998, > 100 µM (inactive); in the experiment with HCT-116, > 100 µM (inactive); with HCT-15, more than 100 µM. In addition, the GI50 in the experiment with HOP-62, in the experiment on HT-29, with Hs-578T, with IGROV-1, with M14 and with Malme-3M was > 100 µM (inactive) in each case. Also, the GI50 with NCI-H460, with OVCAR-4, with OVCAR-5, in the experiment on PC-3, with RPMI-8226 and in the experiment with SF-539 was > 100 µM (inactive) each time. Also, the GI50 in the experiment on SNB-19 and in the experiment with UACC-257 was > 100 µM (inactive) throughout.
